Experimental data taken from US10604526B2, “Chemokine receptor modulators and uses thereof” (RAPT THERAPEUTICS, INC., priority 2016, dated 2020).
pIC50: −log10 of the molar value.

Target: T1, hCCR4 (Homo sapiens, UniProt P51679)
T1 sequence (P51679 1-360): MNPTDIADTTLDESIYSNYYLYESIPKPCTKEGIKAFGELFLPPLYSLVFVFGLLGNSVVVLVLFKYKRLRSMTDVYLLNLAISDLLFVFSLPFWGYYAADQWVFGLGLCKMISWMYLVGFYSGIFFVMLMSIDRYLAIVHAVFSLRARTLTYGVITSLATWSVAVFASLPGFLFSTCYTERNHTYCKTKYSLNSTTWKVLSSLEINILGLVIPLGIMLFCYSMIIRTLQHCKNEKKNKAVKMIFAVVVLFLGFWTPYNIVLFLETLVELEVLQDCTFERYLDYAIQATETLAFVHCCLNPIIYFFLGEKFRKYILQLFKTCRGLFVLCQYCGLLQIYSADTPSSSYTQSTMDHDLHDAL
Experiment: Calcium flux assay
Format: cell-based
Conditions: Chem5-hCCR4 cells, CCL22 at EC80 of 1.5 nM, FLIPR Calcium 6 dye; read-out: Potency (IC50)
Summary of the method: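 Chem5 cells expressing hCCR4 were serum-starved for 2 h, loaded with Calcium 6 dye plus 2.5 mM probenecid, then given compound for 1 h at 37 °C (0.5% DMSO). CCL22 was added from a 7.5 nM working solution (5× EC80 of 1.5 nM). IC50 came from ΔF/Fmin (485/525 nm) by 4-parameter fit.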

| Molecule | pIC50 |
| --- | --- |
| CC(=O)N[C@@H](C)CN1CCC[C@H](C2CN(c3cnc4c(C(F)(F)F)nn([C@H](C)c5ccc(Cl)cc5Cl)c4n3)C2)C1 [Example 106, N—((S)-1-((R)-3-(1-(1-((R)-1-(2,4-dichlorophenyl)ethyl)-3-(trifluoromethyl)-1H-pyrazolo[3,4-b]pyrazin-6-yl)azetidin-3-yl)piperidin-1-yl)propan-2-yl)acetamide] | > 7.00 |
| N-(2-((R)-3-(1-(1-((R)-1-(2,4-dichlorophenyl)ethyl)-3-(trifluoromethyl)-1H-pyrazolo[3,4-b]pyrazin-6-yl)azetidin-3-yl)piperidin-1-yl)ethyl)propane-2-sulfonamide and N-(2-((S)-3-(1-(1-((R)-1-(2,4-dichlorophenyl)ethyl)-3-(trifluoromethyl)-1H-pyrazolo[3,4-b]pyrazin-6-yl)azetidin-3-yl)piperidin-1-yl)ethyl)propane-2-sulfonamide [Example 66] | > 7.00 |
